# Measured values: patent US11667628B2, “Compounds for imaging tau proteins that accumulate in brain” (National Institutes for Quantum and Radiological Science …, priority 2012, dated 2023)
# Assays:
# [1] = literature by Zhuang et al.; cited from earlier work
# Aβ40 fibrils = Aβ40 fibrils (Homo sapiens, UniProt P05067); experiment: In vitro fluorometric binding assay, Aβ40 fibrils; details: for EC50: average±SE, concentration giving half of maximum fluorescence intensity; for λem (nm) Aβ40: detection wavelength; for λem (nm) Aβ40 / λex (nm) Aβ40: compound bound to Aβ40 polymers; for λex (nm) Aβ40: optimal excitation wavelength
# [2] = biological target: Human T40 (the longest tau isoform formed with 441 amino acid residues) fibrils (Homo sapiens, UniProt P10636); experiment: In vitro fluorometric binding assay, recombinant T40 tau fibrils; details: for EC50: average±SE, concentration giving half of maximum fluorescence intensity; for λem (nm) T40: detection wavelength; for λem (nm) T40 / λex (nm) T40: compound bound to T40 polymers; for affinity to tau pathologies: fluorometric analysis using Aβ and tau filaments formed in a test tube; for λex (nm) T40: optimal excitation wavelength; for EC50 (Aβ)/EC50 (Tau): ratio of EC50 of Aβ40 fibrils to EC50 of T40 fibrils
# [3] = tested on: fibrous aggregate pathologies in AD grey matter; experiment: In vitro autoradiography, AD frontal cortex sections; type: binding, human; details: up to 1 nM radioligand
# [4] = tested on: NFTs in AD brain slices including the hippocampal formation; experiment: In vitro autoradiography of AD brains including hippocampal formation; type: binding, human; details: for total binding after addition of non-radioactive PBB5 (100 μM) and thioflavin-S (10 μM) / signals in hippocampus CAI region and pes hippocampi: 10 nM radioligand; for signals in hippocampus CAI region and pes hippocampi: AD patient's brain slice
# Experimental: 12 to 15-month-old non-Tg WT mice and PS19 mice were decapitated, and their brains were frozen and sliced into 20 μm-thick sections in a cryostat (HM560). The sections were placed on slide glass (Matsunami Glass), and kept at −80° C., until an analysis. Similarly, sections of the cerebral cortex were obtained from an AD patient. […] Non-specific bonding was detected in the presence of a 10 μMV non-radioactive ligand. Samples were reacted with [^11C]PBB2 or [^11C]PBB3, and were each washed twice, for 2 minutes, with an ice-cool Tris-HCl buffer solution containing 20% or 10% ethanol, and immersed in ice water for 10 seconds. After that, the sections were dried with warm air, and placed on imaging plates (Fuji Film). The imaging plates were scanned by a BAS500 system (Fuji Film), and autoradiograms were obtained (FIG. 6A).
# In order to compare the binding of [^11C]PBB3 and [^11C]PIB to areas inside the human brain where there were plenty of tau pathologies, in vitro autoradiograms were obtained using AD brain slices including the hippocampal formation.
# [5] = tested on: NFTs in the AD patient's hippocampus; experiment: In vivo PET imaging of humans; design: species or system human; details: same AD and normal control subjects
# From the text: 2 subjects with normal cognitive function ([…]; average 73.5 years old), and 3 AD patients ([…] years old; average 72 years old) were employed for this study. All the subjects were males, and all the AD patients were diagnosed in accordance with the standards of the National Institute of Neurological and Communicative Diseases and Stroke/Alzheimer's Disease and Related Disorders Association (NINCDS-ADRDA). The clinical dementia rating scale was 0 for both normal subjects, and ranged from 1 to 2 with the AD patients. Their cognitive function was evaluated by a mini-mental state examination (MMSE). […] During the [^11C]PBB-PET scanning, artery blood samples are obtained 10, 20, 30, 40, 50, 60, 70, 80, 90, 100, and 110 seconds after the injection, and 2, 2.5, 3, 4, 5, 6, 7, 8, 9, 10, 12, 15, 20, 25, 30, 40, 50, 60 and 70 minutes after the injection, and the amount of radioactivity in the plasma was measured. The radioactivity to match [^11C]PBB3 in unmetabolized plasma was measured by HPLC using the samples from 3, 10, 20, 30 and 60 minutes after the injection (Waters mBondapak C18 column, 7.8 mm×300 mm; acetonitrile/ammonium formate mobile phase, gradient elution=40/60 (0 minutes), 52/48 (6 minutes), 80/20 (7 minutes), 80/20 (8 minutes), 40/60 (9 minutes) and 40/60 (15 minutes); flow rate, 6 mL/minute). […]
# Sequence of Aβ40 fibrils (P05067 672-711 limits assumed): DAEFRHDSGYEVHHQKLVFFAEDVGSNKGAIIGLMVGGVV
# Sequence of Human T40 (the longest tau isoform formed with 441 amino acid residues) fibrils (P10636 1-441 isoform P10636-8): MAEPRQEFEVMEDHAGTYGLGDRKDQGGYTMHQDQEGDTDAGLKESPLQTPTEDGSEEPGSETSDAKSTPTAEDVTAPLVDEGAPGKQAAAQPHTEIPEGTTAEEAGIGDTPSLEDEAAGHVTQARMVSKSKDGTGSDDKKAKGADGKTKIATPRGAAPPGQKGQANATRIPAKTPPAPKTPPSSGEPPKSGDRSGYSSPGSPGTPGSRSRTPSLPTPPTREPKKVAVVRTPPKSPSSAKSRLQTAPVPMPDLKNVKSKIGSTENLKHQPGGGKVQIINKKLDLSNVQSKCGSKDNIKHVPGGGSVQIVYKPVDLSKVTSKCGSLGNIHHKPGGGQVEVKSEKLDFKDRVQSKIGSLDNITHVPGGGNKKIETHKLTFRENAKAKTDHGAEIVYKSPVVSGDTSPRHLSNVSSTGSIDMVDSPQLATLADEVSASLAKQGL
compound,measurement,setting,value
"O=C(O)c1cc(/C=C/c2ccc(/C=C/c3ccc(O)c(C(=O)O)c3)c(F)c2)ccc1O [FSB, (E,E)-1-fluoro-2,5-bis(3-hydroxycarbonyl-4-hydroxy)styrylbenzene]",passing the blood brain barrier,[1],difficulty passing the blood brain barrier
"CN(C)c1ccc(/C=C/C=C/c2nc3ccccc3s2)cc1 [PBB1, 4-((1E,3E)-4-(benz[d]thiazole-2-yl)buta-1,3-dienyl)-N,N-dimethylaniline]",EC50,Aβ40 fibrils,4110 nM
same,λem (nm) Aβ40,Aβ40 fibrils,565 nm
same,λex (nm) Aβ40,Aβ40 fibrils,440 nm
same,EC50,[2],402 ± 352 nM
same,λem (nm) T40,[2],565 nm
same,affinity to tau pathologies,[2],high affinity
same,λex (nm) T40,[2],515 nm
same,EC50 (Aβ)/EC50 (Tau),[2],10.2
"CC[n+]1c(/C=C/C=C/c2ccc(N(C)C)cc2)sc2ccccc21 [PBB5, 2-((1E,3E)-4-(4-(dimethylamino)phenyl)buta-1,3-dienyl)-3-ethylbenzo[d] thiazole-3-ium]",EC50,Aβ40 fibrils,1220 nM
same,λem (nm) Aβ40,Aβ40 fibrils,685 nm
same,λex (nm) Aβ40,Aβ40 fibrils,635 nm
same,EC50,[2],126 ± 67 nM
same,λem (nm) T40,[2],685 nm
same,affinity to tau pathologies,[2],high affinity
same,λex (nm) T40,[2],630 nm
same,EC50 (Aβ)/EC50 (Tau),[2],9.7
"Cc1ccc2c(c1)sc(-c1ccc(N(C)C)cc1)[n+]2C.[Cl-] [Thioflavin-T, reference compound]",λem (nm) Aβ40,Aβ40 fibrils,495 nm
same,λex (nm) Aβ40,Aβ40 fibrils,445 nm
same,λem (nm) T40,[2],485 nm
same,λex (nm) T40,[2],445 nm
"[11CH3]Nc1ccc(/C=C/C=C/c2nc3ccc(O)cc3s2)cc1 [[^11C]PBB2, 2-((1E,3E)-4-(4-([^11C]methylamino)phenyl)buta-1,3-dienyl)benz[d]thiazole-6-ol]","radiolabeling of fibrous aggregate pathologies, AD grey matters",[3],strongly radio-labeled
"[11CH3]Nc1ccc(/C=C/C=C/c2nc3ccc(O)cc3s2)cn1 [[^11C]PBB3, 2-((1E,3E)-4-(6-([^11C]methylamino)pyridine-3-yl)buta-1,3-dienyl)benz[d]thiazole-6-ol]","radiolabeling of fibrous aggregate pathologies, AD grey matters",[3],strongly radio-labeled
same,total binding after addition of non-radioactive PBB5 (100 μM) and thioflavin-S (10 μM),[4],clearly discarded
same,signals in hippocampus CAI region and pes hippocampi,[4],Strong [^11C]PBB3 signals were observed
same,binding in cortex region in the side of the collateral sulcus,[4]; compared to [^11C]PIB,more binding
same,PET signal in hippocampal formation of AD patient compared to NC,[5],increased
"[11CH3]Nc1ccc(-c2nc3ccc(O)cc3s2)cc1 [[^11C]PIB, reference compound]",total binding after addition of non-radioactive PBB5 (100 μM) and thioflavin-S (10 μM),[4],"clearly discarded, except for the white matter"
same,signals in hippocampus CAI region and pes hippocampi,[4],no [^11C]PIB signal was observed
same,PET signal in hippocampal formation of AD patient compared to NC,[5],did not change much
thioflavin-S,passing the blood brain barrier,[1],difficulty passing the blood brain barrier
